Earlier results as cited in patent US8444622B2, “Device, system, and method for targeted delivery of anti-inflammatory medicaments to a mammalian subject” (The Invention Science Fund I, LLC, priority 2009, dated 2013).

elimination from synovial fluid (appreciable drug concentrations may still be measurable after 24 hours): slow
time to steady-state in synovial fluid (once daily dosing of naproxen sodium): within a week
predicted accumulation ratio based on trough concentration (synovial fluid, once daily dosing of naproxen sodium): 2.4
Structure (SMILES): COc1ccc2cc([C@H](C)C(=O)O)ccc2c1 [naproxen]
